Structures are written as SMILES. In brackets after ≈: the same amount, converted by molar mass.

For the data set the following is noted: buffer; pH 7.4; 200.0 µM.
Broadly, the solubility (kinetic) is the concentration staying in solution when a stock, usually in DMSO, is diluted into the medium. The compound `CC(C)CCNC(=O)c1cc2c(=O)[nH]c3ccccc3c2s1` showed a kinetic solubility below 0.3 µg/mL.

Compound `O=S(=O)(/N=C/c1c(O)ccc2ccccc12)c1ccccc1` had a kinetic solubility above 46.7 µg/mL.

With `COc1cc2c(cc1OC)CN(C(=O)c1cc(Cl)nc(Cl)c1)CC2`, the solubility (kinetic) stood at 27 µg/mL (≈ 73.5 µM).

On to `O=C(COC(=O)CNC(=O)c1ccccc1)NCc1ccc2c(c1)OCO2`, for which the kinetic solubility is above 55.6 µg/mL.

For `Cl.c1ccc(CNc2c3c(nc4ccccc24)CCC3)cc1`, the solubility (kinetic) is above 46.6 µg/mL.

As to `C#CCOc1ccc(Cl)cc1/C=C1/C(=O)ON=C1C`, the kinetic solubility is above 41.4 µg/mL.

The compound `Cc1cc(C)c(NC(=O)COC(=O)C2CCCO2)c(C)c1` (stereo unspecified) registered a solubility (kinetic) above 43.7 µg/mL.

With `CC1CCC2(CC1)NC(=O)N(CC(=O)NC1CCCCC1C)C2=O` (stereo unspecified), the solubility (kinetic) is above 50.3 µg/mL.

Regarding `O=Cc1c[nH]c2cccc(OCc3ccccc3)c12`, the solubility (kinetic) was 4.6 µg/mL (≈ 18.3 µM).

For `S=C(c1ccc(-c2ccc(Br)cc2)o1)N1CCOCC1`, the kinetic solubility is below 0.8 µg/mL.

`O=S(=O)(Nc1ccc(Cl)cc1)c1cccc2cccnc12` displayed a kinetic solubility of 5 µg/mL (≈ 15.7 µM).

In the case of `COCCNc1nc(-c2cc(C)c(C)cc2C)cs1.Cl`, the solubility (kinetic) amounted to 35.4 µg/mL.

Regarding `CCOC(=O)C1=Nc2ccccc2/C1=C\c1c(O)n(C)c(=O)n(C)c1=O`, the kinetic solubility was found to be 46.5 µg/mL (≈ 131 µM).

In turn, `O=C(OCC(=O)N1CCCC1)c1cccc(Br)c1` displayed a kinetic solubility above 46.8 µg/mL.

`O=C(Cc1ccccc1[N+](=O)[O-])NCCCc1ccccc1`: the kinetic solubility was found to be 43.2 µg/mL (≈ 145 µM).

`C=CCN(Cc1cccs1)C(=O)COc1ccc2c(c1)OCO2` gave a kinetic solubility above 49.7 µg/mL.

The compound `N#Cc1ccccc1OCC(=O)Nc1ccc2c(c1)OCCO2` had a solubility (kinetic) of 19.7 µg/mL (≈ 63.5 µM).

For `COc1cc(NC(=O)Cc2ccccc2)ccc1NC(=O)c1ccccc1`, the kinetic solubility is below 0.4 µg/mL.

On to `Cc1nc([N+](=O)[O-])c(C(=O)OCc2ccc(C#N)cc2)n1C`, for which the solubility (kinetic) was 17.7 µg/mL (≈ 58.9 µM).

The compound `CCOc1ccccc1C(=O)OCC(=O)NCc1ccc2c(c1)OCO2` came in with a solubility (kinetic) above 53.6 µg/mL.

As to `Nc1c2c(nn1-c1ccccc1)CCC2`, the solubility (kinetic) is above 29.9 µg/mL.

`O=C(c1ccc(CNS(=O)(=O)c2cccc(Cl)c2)cc1)N1CCCCC1` yielded a kinetic solubility of 2.6 µg/mL (≈ 6.62 µM).

On to `CCS(=O)(=O)c1ccccc1C(=O)NC1CCCc2ccccc21` (stereo unspecified), for which the solubility (kinetic) amounted to 42.6 µg/mL (≈ 124 µM).

Turning to `CCN(CC)c1ccc(C(=O)OCC(=O)N2CCCC2)cc1`, the kinetic solubility was above 45.7 µg/mL.

The compound `O=c1[nH]cc(S(=O)(=O)Nc2ccc3c(c2)OCO3)c(=O)[nH]1` yielded a kinetic solubility above 46.7 µg/mL.

Compound `C/C(=N/NC(=O)C(C)n1nc(C)c([N+](=O)[O-])c1C)c1ccc(OCC(N)=O)cc1` (stereo unspecified) had a kinetic solubility above 60.4 µg/mL.

Compound `CCC1(C)Cc2c(C#N)c(N)n(-c3ccccc3)c(=S)c2CO1` (stereo unspecified) registered a kinetic solubility of 26.4 µg/mL (≈ 81.1 µM).

`O=C(Nc1ccc2c(c1)OCO2)c1cc(-c2ccccc2Cl)on1` showed a solubility (kinetic) of 1.7 µg/mL (≈ 4.96 µM).

Compound `COc1cc2c(cc1OC)C(c1ccc(Cl)cc1)=NCC2` displayed a kinetic solubility of 41.5 µg/mL (≈ 138 µM).

Turning to `CCc1cc(=O)[nH]c(SCC(=O)N2CCOCC2)n1`, the kinetic solubility was above 42.5 µg/mL.

With `O=C1CCC([N+](=O)[O-])C(c2ccc(C(F)(F)F)cc2)N1` (stereo unspecified), the kinetic solubility is above 43.2 µg/mL.

In the case of `Cn1c(N)c(C(=O)COC(=O)C2=NNC(=O)CC2)c(=O)n(C)c1=O`, the solubility (kinetic) was above 50.6 µg/mL.

The compound `O=S(=O)(NCc1cccs1)c1ccc(Cl)s1` gave a kinetic solubility of 40.5 µg/mL (≈ 138 µM).

`CN(C)CCCNC(=S)Nc1ccc(Br)cc1` yielded a kinetic solubility above 47.4 µg/mL.

In the case of `CCOc1ccc(N2CC(C(=O)N3CCCCC3)CC2=O)cc1` (stereo unspecified), the solubility (kinetic) stood at 46.4 µg/mL (≈ 147 µM).

For the compound `C=CCn1c(O)c(C=NCCN2CCOCC2)c(=O)[nH]c1=S`, the kinetic solubility was above 48.7 µg/mL.

`CC1CCN(C(=O)c2ccc(N3C(=O)c4ccccc4C3=O)cc2)CC1`: the solubility (kinetic) was found to be 33.5 µg/mL (≈ 96.2 µM).

The compound `Cc1c(C(=O)NNC(=O)c2cccnc2)cccc1[N+](=O)[O-]` gave a kinetic solubility above 45 µg/mL.

`Cc1cccc(N2CN(S(=O)(=O)c3cccc([N+](=O)[O-])c3)c3nc4ccccc4nc32)c1` returned a solubility (kinetic) of 0.7 µg/mL (≈ 1.56 µM).

The compound `O=C(NC1(O)C(=O)c2ccccc2C1=O)c1ccc(C(F)(F)F)cc1` displayed a solubility (kinetic) above 52.4 µg/mL.

In turn, `COc1cc(C(=O)NCc2ccc3[nH]c(C)cc3c2)cc(OC)c1OC` came in with a kinetic solubility of 12.5 µg/mL (≈ 35.3 µM).

The compound `COc1ccc(C(=O)N2C[C@H]3C[C@@H](C2)c2cccc(=O)n2C3)cc1OC` showed a solubility (kinetic) above 53.2 µg/mL.

`O=C(Nc1ccccc1)c1ccc(-c2ccc(F)cc2)s1`: the solubility (kinetic) is below 0.6 µg/mL.

Regarding `CC(=O)C1=C(O)CC(C)(C)CC1=NCc1nc2ccccc2[nH]1`, the solubility (kinetic) was above 46.7 µg/mL.

Compound `CN(C)C(=O)Oc1ccc(NC(=O)N2CCOCC2)cc1` had a kinetic solubility of 43.9 µg/mL (≈ 150 µM).

`COC(=O)CNC(=O)COC(=O)/C=C/c1ccc(F)cc1` came in with a kinetic solubility above 44.3 µg/mL.

`O=C(Cc1c(F)cccc1Cl)Nc1nc2ccccc2s1` yielded a kinetic solubility of 0.8 µg/mL (≈ 2.49 µM).

`CC(=O)c1c(C)[nH]c(C(=O)Nc2cccc(C)c2C)c1C` showed a kinetic solubility of 2 µg/mL (≈ 7.03 µM).

Turning to `Cc1ccc(CC2C(=O)N(c3nc(C)cc(C)n3)C(=O)C2C)cc1` (stereo unspecified), the kinetic solubility was above 48.5 µg/mL.

In turn, `CCN(CC)CCNC(=O)Cn1ncc2ccccc2c1=O` gave a kinetic solubility above 45.4 µg/mL.

The compound `Cn1c(SCC#N)nc2ccccc2c1=O` displayed a kinetic solubility of 30.2 µg/mL (≈ 131 µM).

The compound `COc1ccc(S(=O)(=O)n2ccnc2C)c(C)c1C` came in with a solubility (kinetic) above 42.1 µg/mL.

`COc1ccccc1C(=O)NC(=O)Nc1cccc(Cl)c1` displayed a kinetic solubility below 0.3 µg/mL.

Take `CS(=O)(=O)c1ccccc1C(=O)Nc1nc2ccccc2[nH]1`: the solubility (kinetic) is above 47.3 µg/mL.

Take `Cc1ccc(Nc2cc(=O)[nH]c(=O)[nH]2)cc1C`: the solubility (kinetic) was 18.2 µg/mL (≈ 78.7 µM).

The compound `Cc1nc2ccccn2c1-c1csc(Nc2ccc(C(=O)O)cc2)n1` yielded a solubility (kinetic) of 2.5 µg/mL (≈ 7.13 µM).

`CN(c1ccc(OCC(=O)NC2CCC(O)CC2)cc1)S(=O)(=O)c1ccc(Cl)cc1` (stereo unspecified) registered a kinetic solubility above 67.9 µg/mL.

Turning to `Cc1ccc(OC(=O)c2ccncc2)c(C)c1`, the solubility (kinetic) was 23.9 µg/mL (≈ 105 µM).

In the case of `CS(=O)(=O)CCSc1ncccc1C(=O)NCc1cccs1`, the solubility (kinetic) was 53.1 µg/mL (≈ 149 µM).

As for `CC1CC(C)CN(C(=O)C(C)N2CCN(S(=O)(=O)c3ccc(Br)s3)CC2)C1` (stereo unspecified), the solubility (kinetic) is 29.7 µg/mL (≈ 62.1 µM).

In turn, `O=C(c1cc2ccccc2oc1=O)N1CCCCCCC1` yielded a kinetic solubility of 42.5 µg/mL (≈ 149 µM).

`CC(C)CNC(=O)N[C@@H](CC(C)C)C(=O)O` yielded a solubility (kinetic) above 34.5 µg/mL.

`CSc1nc(S(=O)(=O)c2ccc(C)cc2)c(Cl)s1` yielded a kinetic solubility of 10 µg/mL (≈ 31.3 µM).

As to `CCn1c2ccccc2c2cc(NC(=O)c3ccc(=O)oc3)ccc21`, the kinetic solubility worked out at 1.2 µg/mL (≈ 3.61 µM).

`N#Cc1ccsc1NC(=O)CN1C(=O)NC2(CCCCC2)C1=O`: the solubility (kinetic) stood at 47.3 µg/mL (≈ 142 µM).

In turn, `O=C(COC(=O)c1ccc(O)cc1)NC1CCCCCC1` gave a kinetic solubility above 43.7 µg/mL.

As for `Cl.O=C(NCCN1CCOCC1)c1ccccc1OCc1ccccc1`, the solubility (kinetic) is above 56.5 µg/mL.

Turning to `CC(=O)C1=C(O)C(=O)N(Cc2ccco2)C1c1cccc(F)c1` (stereo unspecified), the solubility (kinetic) was above 47.3 µg/mL.

`COc1ccc(C(=O)N/N=C\c2ccoc2)cc1` had a solubility (kinetic) above 36.6 µg/mL.

On to `CCOC(=O)N(C)S(=O)(=O)c1ccccc1[N+](=O)[O-]`, for which the solubility (kinetic) amounted to 42.9 µg/mL (≈ 149 µM).

`CCOC(=O)c1csc(-c2sccc2Br)n1` registered a kinetic solubility of 18.7 µg/mL (≈ 58.8 µM).

In turn, `Cc1ccc(C)c(NC(=O)/C(C#N)=C/c2ccc[nH]2)c1` yielded a kinetic solubility of 3.7 µg/mL (≈ 13.9 µM).

For `O=C(Nc1ccc(N2CCOCC2)cc1)c1cnccn1`, the solubility (kinetic) is above 42.6 µg/mL.

For `CCCNC(=O)C(=O)Nc1cc2c3c(c1)CCC(=O)N3CCC2`, the kinetic solubility was above 47.3 µg/mL.

As for `COc1cc(N)c(Cl)cc1C(=O)OCC(=O)NC1CCCC1`, the kinetic solubility is above 49 µg/mL.

Compound `CCOC(=O)c1c2c([nH]c(=S)c1C#N)CCCC2` returned a solubility (kinetic) of 29.5 µg/mL (≈ 112 µM).

In turn, `CCOC(=O)NC1Cc2ccccc2C1Sc1ccccn1` (stereo unspecified) returned a solubility (kinetic) of 44.8 µg/mL (≈ 142 µM).

In turn, `OCCC1CN(Cc2cccc(O)c2)CCN1CCc1ccccc1` (stereo unspecified) showed a solubility (kinetic) of 50.8 µg/mL (≈ 149 µM).

Consider `COC(=O)c1c(C)[nH]c(C(=O)C(C)OC(=O)c2cnc(C)cn2)c1C` (stereo unspecified), for which the kinetic solubility is 49.2 µg/mL (≈ 142 µM).

Take `O=C(c1ncc[nH]1)c1cccs1`: the kinetic solubility is above 26.7 µg/mL.

`Cc1cccc(C)c1OCC(=O)Nc1ccc(N2CCOCC2)cc1` yielded a solubility (kinetic) of 6 µg/mL (≈ 17.6 µM).

`CCN(C(=O)COC(=O)/C=C/c1ccco1)C1CCCCC1` registered a solubility (kinetic) of 39.1 µg/mL (≈ 128 µM).

Turning to `Cc1cc(C)cc(NC(=O)CCn2ccnc2)c1`, the kinetic solubility was above 36.5 µg/mL.

With `COc1cc(C)c(S(=O)(=O)NOCc2ccccc2)c(C)c1C`, the kinetic solubility turned out to be 5.5 µg/mL (≈ 16.4 µM).

`CC(Nc1cccc(F)c1)C(=O)Nc1ccc(S(N)(=O)=O)cc1` (stereo unspecified) registered a kinetic solubility above 50.6 µg/mL.

Consider `COc1ccc(CC(=O)NC(C)c2ccc3ccccc3c2)cc1` (stereo unspecified), for which the solubility (kinetic) was 0.7 µg/mL (≈ 2.19 µM).

With `O=C(CCc1ccccc1)N1CCCC1`, the solubility (kinetic) was 29.9 µg/mL (≈ 147 µM).

`O=c1[nH]c(/C=C/c2ccccc2Cl)c([N+](=O)[O-])c(=O)[nH]1` came in with a solubility (kinetic) above 44.1 µg/mL.

The compound `Cc1ccc(C)c(NC(=O)CN(C)C(=O)C2CCCC2)c1` returned a solubility (kinetic) above 43.3 µg/mL.

In turn, `COc1ccc(C(=O)N[C@H](C(=O)NCCc2ccc3c(c2)OCCO3)C(C)C)cc1` displayed a solubility (kinetic) of 19.7 µg/mL (≈ 47.8 µM).

The compound `COc1ccc(NC(=O)c2c(N)cnn2C)cc1` returned a solubility (kinetic) above 36.9 µg/mL.

The compound `COc1cc(C)ccc1OCC(=O)OCC(=O)NCC1CCCCC1` registered a solubility (kinetic) above 52.4 µg/mL.

`FC(F)Oc1ccc(NC(=S)NCc2cccnc2)cc1`: the solubility (kinetic) was above 46.4 µg/mL.

As to `C=CCOc1ccc(/C=C/C(=O)OCC(=O)NC2CCCCCC2)cc1`, the solubility (kinetic) was below 0.8 µg/mL.

Regarding `Cn1c(=O)n(CC(N)=O)c(=O)c2c1nc(Br)n2Cc1ccccc1`, the kinetic solubility was above 58.8 µg/mL.

Turning to `Cc1ccc([N+](=O)[O-])cc1NC(=O)CNC1CCCCC1`, the solubility (kinetic) stood at 39 µg/mL (≈ 134 µM).

With `CCc1ccccc1NC(=O)C1CCCN(c2nccc(C)n2)C1` (stereo unspecified), the kinetic solubility was found to be 3.4 µg/mL (≈ 10.5 µM).

Compound `O=C(c1cc(F)c(F)cc1Cl)N1CCN(c2ncccn2)CC1` gave a solubility (kinetic) of 49.3 µg/mL (≈ 146 µM).

`Cc1ccc(OCC(=O)NC2CCS(=O)(=O)C2)c(C)c1` (stereo unspecified) had a kinetic solubility above 44.6 µg/mL.

For the compound `COc1ccc(NS(=O)(=O)c2ccc(Cl)c(NC(=O)c3ccccc3F)c2)cc1`, the solubility (kinetic) came out at 2.6 µg/mL (≈ 5.98 µM).

In turn, `Cc1ccc(CC2C(=O)N(c3cc(Cl)ccn3)C(=O)C2C)cc1` (stereo unspecified) came in with a solubility (kinetic) above 49.3 µg/mL.

The values are drawn from PubChem BioAssay AID1996.
